Reference: PMC8603191, “Fragment-based design of selective GPCR ligands guided by free energy simulations” (Chemical communications (Cambridge, England), 2021)
“And” between values parts separate entries of the source, which are not always exact repeats. Equal values may be shown once.

Columns and labels:
[1] = target: T1, human A1AR (Homo sapiens, UniProt P30542); experiment: Radioligand binding assay, displacement of [3H]DPCPX; conditions: for ligand efficiency (LE, binding free energy per heavy atom): A1AR; for Free energy of binding (ΔG) A1AR: calculated from experimental binding affinities
T1 construct: expressed in transfected cells; host or cells: HEK293 (membrane preparations)
T1 sequence (P30542 1-326): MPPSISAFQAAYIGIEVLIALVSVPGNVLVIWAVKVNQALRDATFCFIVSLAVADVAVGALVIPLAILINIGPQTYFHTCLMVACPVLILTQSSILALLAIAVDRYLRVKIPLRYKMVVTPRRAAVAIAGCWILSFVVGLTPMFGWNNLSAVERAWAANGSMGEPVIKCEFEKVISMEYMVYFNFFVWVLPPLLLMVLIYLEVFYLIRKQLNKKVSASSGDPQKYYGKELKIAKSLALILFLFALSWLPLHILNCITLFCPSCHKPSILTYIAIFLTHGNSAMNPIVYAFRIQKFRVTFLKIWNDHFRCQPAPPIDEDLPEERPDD
Protocol: (§1) Radioligand binding assays. HEK293 cells expressing the human A1- or A2AARs were cultured in DMEM supplemented with 10% fetal bovine serum, 100 Units/ml penicillin, 100 µg/ml streptomycin, and 2 µmol/ml glutamine. Cells were detached from plates by scraping into cold PBS and centrifuged at 250 g for 5 min. The pellets were resuspended in ice-cold Tris HCl buffer (50 mM, pH 7.4) and then homogenized. After homogenization and suspension, cells were centrifuged at 1000 g for 10 min, and the pellet was discarded.
(§2) The suspension was then re-centrifuged at 20,000 g for 60 min at 4 °C. The pellets were resuspended in buffer containing 3 Units/ml adenosine deaminase and incubated at 37°C for 30 min. The aliquots of membrane preparations were stored at −80°C until the binding experiments. For displacement binding assays, membrane preparations (20 µg proteins/tube) were incubated at 25°C for 60 min with a final concentration of [3H]DPCPX (0.5 nM) and [3H]ZM241385 (1.0 nM) for A1- and A2AARs, respectively, in a mixture containing 50 µL of increasing concentrations of a test ligand in a total assay volume of 200 µL of 50 mM Tris HCl, pH 7.4, containing 10 mM MgCl2. Nonspecific binding was determined using 100 µM of XAC. The reaction was terminated by filtration with GF/B filters using a Brandel 24-channel harvester. Filters were placed in scintillation vials containing 5 ml of Hydrofluor scintillation buffer and counted using a PerkinElmer Tricarb 2810TR liquid scintillation counter. […]
(§3) Table S1. Binding affinities of compounds 1-10 based on displacement of [3H]DPCPX and [3H]ZM241385 at the A1AR and A2AAR, respectively.
(§4) Compound Substituent A1AR A2AAR index […]
(§5) a Ki values are expressed as means ± SEM from (2-4) independent experiments. b Free energy of binding (ΔG) calculated from experimental binding affinities (kcal/mol) / Number of heavy atoms (HA). The ligand efficiency (LE) = −ΔG/HA. c Values from Matricon et al.8
(§6) Table S3. Binding affinities of compounds 11-26 based on displacement of [3H]DPCPX and […]
(§7) a K values are expressed as means ± SEM from (2-4) independent experiments.
(§8) Free energy of binding (ΔG) calculated from experimental binding affinities (kcal/mol) / Number of heavy

[2] = tested on: human A1AR; experiment: as above; conditions: A1AR versus A2AAR; for A1AR selectivity index: from Ki values; for selectivity for the A1AR: Fig. 1
Protocol: as §1, §2, §3, §4, §5, §6, §7, §8

[3] = target: T2, human A2AAR (Homo sapiens, UniProt P29274); experiment: Radioligand binding assay, displacement of [3H]ZM241385; conditions: for Free energy of binding (ΔG) A2AAR: calculated from experimental binding affinities; for Ki: displacement of [3H]ZM241385, means ± SEM from 2-4 independent experiments; for ΔΔG Experimental A2AAR: reference compound 5, based on Table S3
T2 construct: expressed in transfected cells; host or cells: HEK293 (membrane preparations)
Protocol: as §1, §2, §3, §4, §5, §6, §7, §8

[4] = compound 1 as reference, based on Table S1
[5] = displacement of [3H]DPCPX, means ± SEM from 2-4 independent experiments
[6] = radioligand binding, Fig. 1, Table S5
[7] = reference compound 5, based on Table S3

T2 sequence (P29274 whole entry): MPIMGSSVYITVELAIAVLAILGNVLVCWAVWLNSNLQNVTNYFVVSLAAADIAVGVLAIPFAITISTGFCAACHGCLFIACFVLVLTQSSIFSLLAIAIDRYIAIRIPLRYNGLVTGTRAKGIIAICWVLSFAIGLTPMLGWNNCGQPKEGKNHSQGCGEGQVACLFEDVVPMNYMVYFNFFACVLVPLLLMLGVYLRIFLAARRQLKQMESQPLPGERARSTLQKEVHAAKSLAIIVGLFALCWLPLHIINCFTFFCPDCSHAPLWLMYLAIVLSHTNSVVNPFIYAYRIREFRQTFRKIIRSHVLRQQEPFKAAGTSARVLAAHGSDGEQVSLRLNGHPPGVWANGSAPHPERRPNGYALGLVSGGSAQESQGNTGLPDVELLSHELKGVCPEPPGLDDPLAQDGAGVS

SMILES | ligand efficiency (LE, binding free energy per heavy atom) [1] | Free energy of binding (ΔG) A1AR [1] | A1AR selectivity index [2] | selectivity for the A1AR [2] | Free energy of binding (ΔG) A2AAR [3] | ΔΔG Experimental A1AR [1, 4] | Ki [1, 5] | Ki [3] | improvement of A1AR affinity ([1]; compared to compound 1) | Ki [1, 6] | A2AAR selectivity ([3]; A2AAR versus A1AR) | ΔΔG Experimental A1AR [1, 7] | ΔΔG Experimental A2AAR [3]
CC(=O)Nc1nc2ccccc2s1 [Compound 1] | 0.52 kcal mol^−1 HA^−1 | -6.8 kcal/mol | 7.1 | 7 fold | -5.6 kcal/mol | – | – | – | – | – | – | – | –
CCC(=O)Nc1nc2ccccc2s1 [Compound 2] | – | -7.5 kcal/mol | 1.8 | – | -7.1 kcal/mol | –0.7 ± 0.3 kcal/mol | 3460 nM and 3500 nM | 6190 ± 3430 nM | – | – | – | – | –
CC(C)C(=O)Nc1nc2ccccc2s1 [Compound 3] | – | -8.0 kcal/mol | 1.6 | – | -7.7 kcal/mol | –1.2 ± 0.3 kcal/mol | 1420 nM and 1400 nM | 2260 ± 360 nM | – | – | – | – | –
O=C(Nc1nc2ccccc2s1)C1CC1 [Compound 4] | – | -7.7 kcal/mol | 1.4 | – | -7.5 kcal/mol | –0.9 ± 0.2 kcal/mol | 2350 nM and 2400 nM | 3270 ± 1140 nM | – | – | – | – | –
CC(C)(C)C(=O)Nc1nc2ccccc2s1 [Compound 5] | 0.56 kcal mol^−1 HA^−1 | -9.0 kcal/mol | 5.0 | not more selective for the A1AR compared to 1 | -8.0 kcal/mol | –2.2 ± 0.2 kcal/mol | – | 1430 ± 230 nM | 39 fold | 285 nM | – | – | –
CCC(CC)C(=O)Nc1nc2ccccc2s1 [Compound 6] | – | -8.2 kcal/mol | 2.8 | – | -7.6 kcal/mol | –1.4 ± 0.1 kcal/mol | 1040 nM and 1000 nM | 2920 ± 720 nM | – | – | – | – | –
O=C(Nc1nc2ccccc2s1)C1CCCCC1 [Compound 7] | – | -8.2 kcal/mol | 3.2 | – | -7.5 kcal/mol | –1.4 ± 0.2 kcal/mol | 1080 nM and 1100 nM | 3410 ± 950 nM | – | – | – | – | –
O=C(Nc1nc2ccccc2s1)C12CC3CC(CC1C3)C2 [Compound 8] | – | -8.7 kcal/mol | 4.0 | – | -7.8 kcal/mol | –1.9 ± 0.3 kcal/mol | 484 ± 173 nM | 1940 ± 220 nM | – | – | – | – | –
O=C(Nc1nc2ccccc2s1)C1CCCC1 [Compound 9] | 0.50 kcal mol^−1 HA^−1 | -8.5 kcal/mol | 2.6 | – | -7.9 kcal/mol | –1.7 ± 0.2 kcal/mol | – | 1610 ± 110 nM | – | 619 nM | – | – | –
O=C(Nc1nc2ccccc2s1)c1ccccc1 [Compound 10] | – | -8.5 kcal/mol | 0.6 | – | -8.8 kcal/mol | –1.7 ± 0.1 kcal/mol | 670 ± 80 nM | 386 ± 43 nM | – | – | 2 fold | – | –
Cc1ccc2nc(NC(=O)C(C)(C)C)sc2c1 [Compound 11] | – | > -5.5 kcal/mol | < 0.3 | – | -6.3 kcal/mol | – | > 100000 nM | 25800 ± 13200 nM | – | – | – | > 3.5 kcal/mol | 1.7 ± 0.6 kcal/mol
Cc1cccc2sc(NC(=O)C(C)(C)C)nc12 [Compound 12] | – | -8.2 kcal/mol | 6.5 | – | -7.1 kcal/mol | – | 1040 nM and 1000 nM | 6750 ± 920 nM | – | – | – | 0.8 ± 0.1 kcal/mol | 0.9 ± 0.1 kcal/mol
Cc1ccc2sc(NC(=O)C(C)(C)C)nc2c1 [Compound 13] | – | -9.8 kcal/mol | 19.1 | – | -8.0 kcal/mol | – | 76 ± 17 nM | 1450 ± 600 nM | – | – | – | –0.8 ± 0.2 kcal/mol | 0.0 ± 0.5 kcal/mol
CC(C)(C)C(=O)Nc1nc2cc(Cl)ccc2s1 [Compound 14] | – | -9.5 kcal/mol | 11.0 | – | -8.1 kcal/mol | – | 117 ± 11 nM | 1290 ± 280 nM | – | – | – | –0.5 ± 0.1 kcal/mol | –0.1 ± 0.2 kcal/mol
CC(C)(C)C(=O)Nc1nc2cc(Br)ccc2s1 [Compound 15] | 0.60 kcal mol^−1 HA^−1 | -10.2 kcal/mol | 18.7 | 19 fold | -8.4 kcal/mol | – | – | 746 ± 149 nM | – | 40 nM | – | –1.2 ± 0.2 kcal/mol | –0.4 ± 0.2 kcal/mol
CCc1ccc2sc(NC(=O)C(C)(C)C)nc2c1 [Compound 16] | – | -9.4 kcal/mol | 23.6 | – | -7.5 kcal/mol | – | 143 ± 20 nM | 3380 ± 530 nM | – | – | – | –0.4 ± 0.1 kcal/mol | 0.5 ± 0.4 kcal/mol
CC(C)(C)C(=O)Nc1nc2cc(C#N)ccc2s1 [Compound 17] | – | -9.1 kcal/mol | 25.2 | – | -7.2 kcal/mol | – | 223 ± 22 nM | 5630 ± 740 nM | – | – | – | –0.2 ± 0.1 kcal/mol | 0.8 ± 0.1 kcal/mol
COc1ccc2sc(NC(=O)C(C)(C)C)nc2c1 [Compound 18] | – | -9.4 kcal/mol | 10.5 | – | -8.0 kcal/mol | – | 152 ± 57 nM | 1600 ± 510 nM | – | – | – | –0.4 ± 0.3 kcal/mol | 0.1 ± 0.5 kcal/mol
